For test [1], the system named is human Kif5B 1–905-EGFP on stabilized MTs. In words: Single-molecule kinesin-1 motility assay on stabilized MTs (TIRF). The conditions noted are these: 1.08 nM Kif5b-EGFP, 10 μM drug. Type of test: biochemical. How it is done: To gain mechanistic insight into the kinesin phenotype observed in cells, we reduced system complexity using an in vitro reconstitution assay. Specifically, we performed time-lapse imaging using total internal reflection fluorescence (TIRF) microscopy with immobilized and stabilized MTs in a flow chamber, into which we introduced 1.08 nM kinesin-1 motors (constitutively active human Kif5B 1–905-EGFP). We then analyzed individual kinesin movements to quantify landing rates (number of motors per unit MT length per unit time), run lengths, interaction times, and average velocities (Figure D, Movies S12–S15). In contrast to our experiments in cells, here we evaluated each structural modification individually to dissect the effects of MT lattice parameters on kinesin-1 mediated transport.
(§1) Total Internal Reflection Fluorescence microscopy experiments were performed on an inverted widefield microscope Nikon-Ti2 E, equipped with a motorized XY-stage, a perfect focus system, Apo TIRF 60× oil NA 1.49 objective and PRIME BSY (Teledyne Photometrics) camera. MTs were visualized using Interference Reflection microscopy (IRM) and fluorescently labeled proteins were visualized sequentially by switching between microscope filter cubes for GFP and mCherry channels. The microscopes were controlled using NIS Elements software (Nikon). All experiments were conducted at RT.
(§2) Microscopy chambers were prepared from two sandwiched silanized glass coverslips (22 × 22 mm^2 and 18 × 18 mm^2) attached through parafilm strips (heated for 15–20 s at 60 °C and gently pressed together) to form ∼2.5 mm wide parallel flow channels. Prior to the chamber assembly, the coverslips were washed in 3 M KOH, cleaned using Zepto plasma cleaner (Diener electronic) and silanized with hexamethyldisilazane. Flow channels were first incubated with 40 μgml^–1 antibiotin antibodies (Sigma, B3640) in PBS for 10 min, followed by incubation with 1% Pluronic F127 (Sigma-Aldrich, P2443) in PBS for at least 1 h. F127 was washed with BRB80 (80 mM PIPES, 1 mM EGTA, 1 mM MgCl2, pH 6.9).
(§3) Porcine brain tubulin was isolated using the high-molarity PIPES procedure then mixed with Biotin labeled tubulin (Cytoskeleton Inc., T333P) in 1:49 ratio. All MTs were polymerized using 2% biotin-labeled tubulin. […] Polymerized MTs were centrifuged for 30 min at 18,000g in a Microfuge 18 Centrifuge (Beckman Coulter’s). […] Drug stabilized preassembly MTs (polymerized in the presence of drugs and GTP, stored and imaged in presence of drug) were polymerized from 4 mg mL^–1 biotinylated tubulin for 30 min at 37 °C in BRB80 supplemented with 4 mM MgCl2, 40 μM drug of interest in 5% DMSO, and 1 mM GTP. Polymerized MTs were centrifuged for 30 min at 18,000g in a Microfuge 18 Centrifuge (Beckman Coulter’s). […] GMPCPP stabilized MTs (GMPCPP polymerized) were assembled from 4 mg mL^–1 biotinylated tubulin for 2 h at 37 °C in BRB80 supplemented with 1 mM MgCl2 and 1 mM GMPCPP (Jena Bioscience, NU-405). Polymerized MTs were centrifuged for 30 min at 18,000g in a Microfuge 18 Centrifuge (Beckman Coulter’s) and pellets were resuspended and kept in BRB80.
Stabilized MTs were flushed into the channel and incubated for 15–30 s to allow for surface attachment. Unbound MTs were removed by washing with BRB80 supplemented with 10 μM of drug. Prior the experiment, the solution was exchanged by motility buffer, MB (BRB80 containing 10 mM DTT, 20 mM D-glucose, 0.1% Tween-20, 0.5 mg/mL casein, 1 mM Mg-ATP, 0.02 mg/mL catalase, 0.22 mg/mL glucose oxidase, 10 μM drug). Subsequently, a solution containing either 1.08 nM Kif5b-EGFP or 10/40 nM mCherry-Tau in MB was introduced into the chamber.
To assess kinesin-EGFP motility along MTs, an IRM image (50 ms exposure) was acquired followed by a 1 min video using 488 nm laser excitation (20% laser intensity, 300 ms exposure) with no delay. Two to three videos were recorded from different fields within the same channel and at least 2 channels were measure for each experimental condition. […]

Test [2] relates to Tau-mCherry (Tau 441 isoform) on stabilized MTs from porcine brain tubulin. In words: Tau-mCherry binding to stabilized MTs (TIRF). Type of test: biochemical. The following applies: 40 nM Tau-mCherry.
Excerpt: Previous studies in vitro have shown that Tau molecules strongly prefer compacted GDP lattices. Tau binds cooperatively to MT surfaces, resulting in a cohesive layer depending on tau-tau interactions, termed MT envelope, which selectively regulates access to MT lattices, and shields MTs from severing enzymes. − On expanded PTX-MTs, Tau envelope also forms and the lattice can get locally compacted. To further explore how MT lattice structure influences Tau binding, we employed an in vitro reconstitution assay. We deposited stabilized MTs in a flow chamber, and visualized them via interference reflection microscopy (Figure C). We then added 10 nM Tau-mCherry (labeled purified Tau 441 isoform at the C-terminus with mCherry) and monitored its association with MTs using time-lapse TIRF microscopy. After 4 min, we increased Tau concentration to 40 nM, and continued imaging for an additional 4 min. We measured fluorescence intensities along MTs to quantify Tau binding (Movies S16–S27). […] PTXpost-MTs also supported […] faster envelope growth (0.20 ± 0.02 μm/s versus 0.054 ± 0.006 μm/s for PTXpre-MTs, Figure H).
as §1, §2, §3
Stabilized MTs were flushed into the channel and incubated for 15–30 s to allow for surface attachment. Unbound MTs were removed by washing with BRB80 supplemented with 10 μM of drug. Prior the experiment, the solution was exchanged by motility buffer, MB (BRB80 containing 10 mM DTT, 20 mM D-glucose, 0.1% Tween-20, 0.5 mg/mL casein, 1 mM Mg-ATP, 0.02 mg/mL catalase, 0.22 mg/mL glucose oxidase, 10 μM drug). Subsequently, a solution containing either 1.08 nM Kif5b-EGFP or 10/40 nM mCherry-Tau in MB was introduced into the chamber. […]

The test system of test [3] is taxane site of assembled cross-linked MTs. Put plainly: Displacement of FTX2 from the taxane site (fluorescence polarization). The conditions noted are these: 35 °C. Type of test: binding, calf. As to the method: Purified calf brain tubulin and chemicals were obtained as previously described. Tau-mCherry was expressed and purified as described previously. Human Kif5B-EGFP (amino acids 1-905), containing a C terminal fluorescent-tag followed by a 3C protease cleavage site and a 6 × His-tag was expressed and purified as in with some modifications. Prior to purification, cells were resuspended in 1:1 ratio of lysis buffer (30 mM HEPES pH 7.5, 300 mM NaCl, 0.5 mM ATP, 5% glycerol, 20 mM imidazole, […]) supplemented with 1× Protease inhibitor cocktail and benzonase to the final concentration of 25 units/ml. Cells were homogenized by repeated pipetting. Cells were lysed by spinning for 45 min at 40,000 rpm in 45 Ti fixed-angle rotor (Beckman Coulter) at 4 °C. The supernatant was incubated with pre-equilibrated HisPUR NiNTA agarose resin (Thermo Fisher Scientific) for 1 h in a tightly closed gravity-flow column (Thermo Fisher Scientific) at 4 °C by slowly rotating. Subsequently, the resin was washed once lysis buffer and then with buffer B (30 mM HEPES pH 7.5, 300 mM NaCl, 0.5 mM ATP, 5% glycerol, 30 mM imidazole, […]). The protein was eluted from the resin after an overnight cleavage of the 6 × His-tag with 3C HRV protease in lysis buffer at 4 °C. The eluted protein was further purified via size exclusion chromatography on Superdex 200 10/300 GL column equilibrated in exclusion buffer (30 mM HEPES pH 7.5, 300 mM NaCl, 0.5 mM ATP, 5% glycerol, […]). Peak fractions were analyzed via SDS-PAGE, pooled and the protein was concentrated with Amicon Ultra-15 Centrifugal Filter tubes (Millipore). Purified proteins were aliquoted, snap-frozen in liquid N2, and stored at −80 °C.
The equilibrium binding constant of 1a and 1b to the taxane site of assembled MTs were determined by the displacement of FTX2 from the taxane site in cross-linked MTs. The displacement isotherm of each ligand was measured at least three times in two different plates with a fluorescence polarization microplate reader, as described. A mixture of 50 nM taxane binding sites and 50 nM FTX2 in GAB buffer was sampled in a 96-well plate. […] After mixing the samples for 10 min by shaking at 250 rpm, they were incubated 20 min at the desired temperatures (26, 35 or 42 °C) and their anisotropies were measured using a Spark Tecan plater reader in fluorescence polarization at emission of 535 nm and excitation of 485 nm. A sample containing 50 nM taxane binding sites was employed as blank, and a 50 nM solution of FTX2 in GAB, 0.1 mM GTP was employed as anisotropy standard. G factor was calculated as a mean over several cells in different conditions. The molar saturation fraction, X b , of the probe for each competitor concentration is calculated from the polarization values measured, P. Measurements of the polarization of FTX2 completely displaced (P 0 ) and, in absence of the competitor ligand (P sat), are required for data processing. The binding of FTX2 in the presence of the competitor ligand (X b = (P–P 0 /P sat – P 0 ) · X sat) was calculated and best fitted to the equilibrium binding constant of the competitor assuming unitary stoichiometry and the binding constant of the reference ligand (FTX2) with a PC program (Equigra v5).
Once the equilibrium binding constants are measured at different temperatures, the standard free energy of binding at a given temperature is calculated from the binding constant as ΔG 0app = −RT Ln K a, the standard enthalpy of the binding reaction is calculated from the representation of Ln K a versus 1/T (Van’t Hoff representation), and the slope of this representation multiplied by −R is equal to −ΔH 0app. The standard entropy of binding to ΔS 0app is calculated from the slope of the linear regression of ΔG 0app versus T.
For orientation: Polarisation of emitted light reports the rotation of a fluorescent probe.

Consider three compounds from paper PMC13492380, “Dissecting Structural and Functional Determinants of Microtubules Stabilization through Guided Chemical Modulation” (Journal of Medicinal Chemistry, 2026).

On to `Nc1nc2c(ncn2C2OC(COP(=O)(O)CP(=O)(O)OP(=O)(O)O)C(O)C2O)c(=O)[nH]1` (stereo not drawn) [GMPCPP, guanosine-5′-[(α,β)-methyleno]triphosphate], for which, in test [1], the “kinesin-1 landing rate on stabilized MTs” value is reported as “decreased on GMPCPP compared with PTX”, the “kinesin-1 time bound on stabilized MTs” value is “increased the time bound” and the “kinesin-1 velocity on stabilized MTs” value is given as “decreased the velocity”. Moreover, in test [2], the “Tau-mCherry coating of stabilized MTs” value is on record as “bound diffusively”.
Regarding `CC(=O)OC1C(=O)C2(C)C(OC(=O)C(C)NC(=O)CCCCCNC(=O)c3ccc(-c4c5ccc(=O)cc-5oc5cc(O)ccc45)c(C(=O)O)c3)CC3OCC3(OC(C)=O)C2C(OC(=O)c2ccccc2)C2(O)CC(OC(=O)C(O)C(NC(=O)c3ccccc3)c3ccccc3)C(C)=C1C2(C)C` (stereo not drawn) [HFX, Hexaflutax, reference compound], the “incremental binding free energy (ΔΔG), PTX-to-derivative modification” value in test [3] is listed as 6.9 kJ mol^–1.
As for Flutax-1 [reference compound], in test [3], the “incremental binding free energy (ΔΔG), PTX-to-derivative modification” value was −1.63 kJ mol^–1.
